Experimental data from patent US20080070237A1, “Npas3 Mutant Mice and Uses for Screening and Testing Therapies for Schizophrenia and Related Neurological Disorders” (priority 2003, published 2008).
Where a name gives a salt, the structure may show the parent alone. Read-outs that look alike come from different tables or passages of the source.

How the values were obtained:
[1] = system: Npas3+/+ control mice; type: in vivo, mouse
Procedure: (§1) Locomotor Activity Tests. For all locomotor experiments, activity is measured in a 41×41×30 cm Omnitech Digiscan activity monitor equipped with 16 pairs of photodetector-LED beams along the x and y axis. (Accuscan Electronics, Columbus, Ohio). […] After the acclimation period, Baseline Locomoter Activity Test results are recorded for each test mouse. Subsequently, locomotor activity is tested following pharmacological challenges of three neurotransmitter pathways involved in schizophrenia and other neurological disorders. The pathways and the drugs used to challenge each include:
(§2) a. Methamphetamine (a dopamine pathway agonist) 1.0 mg/kg in the form of D-methamphetamine-HCL (Sigma; St. Louis, Mo.). Methamphetamine is a strong dopamine agonist that will activate D1 and D2 receptor signaling.
(§3) b. Haloperidol (a dopamine pathway antagonist) 0.3 mg/kg or 1.0 mg/kg (Tocris; Ellisville, Mo.).
(§4) The test drug is 0.3 mg/kg clozapine (Sigma; St. Louis, Mo.). An atypical neuroleptic agent, clozapine, which has a high affinity for serotonin 5-HT2 and 5-HT6 receptors, is administered to determine the involvement of serotonergic pathways. Although clozapine can also antagonize both D1 and D2-like receptors, ten times higher concentrations are necessary to inhibit dopamine-dependent hyperactivity
(§5) The test drugs are 1.0 mg/kg MK-801 or 0.3 mg/kg MK-801 (ICN Biomedicals Inc.; Aurora, Ohio). MK-801 is a noncompetitive NMDA receptor antagonist.
(§6) Each drug is administered in a subcutaneous injection volume of 5 mL/kg body weight. Post-challenge activity is measured for three hours. Horizontal activity counts (scored by visual observance or breaking a light beam) and total distance are recorded during the pre- and post-challenge periods at 3-minute intervals with VersaMax software. All Locomoter Activity Tests are performed on mice at 7-9 weeks of age, with n=12. All values are expressed as mean±SEM. Statistical analyses are performed using appropriate analysis of variance (ANOVA) followed by adapted post hoc comparisons.

[2] = system: Npas3−/− mice; type: in vivo, mouse
Procedure: as §1, §2, §3, §4, §5, §6

[3] = FIG. 28 dose of MK-801 (not stated at the place; b105: 1.0 or 0.3 mg/kg), subcutaneous
[4] = FIG. 28 dose of MK-801, subcutaneous
[5] = lower dose 0.1 mg/kg, data not shown
[6] = 0.3 mg/kg subcutaneous, post-challenge activity measured for three hours
[7] = 1.0 mg/kg subcutaneous, post-challenge activity measured for three hours

`C[C@]12N[C@H](Cc3ccccc31)c1ccccc12` [MK-801] was tested, and the “horizontal locomotor activity after drug challenge” value (“horizontal locomotor activity” below) [1, 3] was “increased locomotor activity”, the “stereotype (stereotypy) after drug challenge” value [1, 4] was “did not increase the levels of stereotype” and the “locomotor activity after drug challenge” value [1, 5] was “did not induce hyperactivity”. For the same compound, the “horizontal locomotor activity” value [2, 3] was “dramatic suppression of locomotor activity”, the “stereotype (stereotypy) after drug challenge” value [2, 4] was “induced hyperstereotype” and the “locomotor activity after drug challenge” value [2, 5] was “potently activated locomotion”.
In the case of `O=C(CCCN1CCC(O)(c2ccc(Cl)cc2)CC1)c1ccc(F)cc1` [haloperidol, Haloperidol], the “horizontal locomotor activity” value [1, 6] is reported as “substantial impairment in locomotor activity” and the “horizontal locomotor activity” value [2, 6] is reported as “partial reduction in activity”.
In the case of `CN[C@@H](C)Cc1ccccc1` [methamphetamine, D-methamphetamine-HCL], the “horizontal locomotor activity” value [1, 7] is reported as “increases locomotor behavior” and the “horizontal locomotor activity” value [2, 7] is reported as “failure of methamphetamine to increase locomotor activity”.
